Assay results reported in the supplement of paper PMC10307832.

How the values were obtained:
Test in all cases: relative viability (nuclei count vs DMSO), 5 days (fraction); higher = more cells survive
DM3189 + Palbociclib = compound: C1CN(CCN1)C2=CC=C(C=C2)C3=CN4C(=C(C=N4)C5=CC=NC6=CC=CC=C56)N=C3 [DM3189] + CC(=O)c1c(C)c2cnc(Nc3ccc(N4CCNCC4)cn3)nc2n(C2CCCC2)c1=O [Palbociclib] (partner 0.5 µM)
Summary of the method: (§1)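 Relative viability equals treated-well nuclei counts divided by vehicle-well nuclei counts. Counts came from 4× images of lung cancer cell lines grown in 1536-well plates for 5 days after pin-tool dosing on the day after seeding. Dosing used one drug alone or a fixed anchor-drug dose plus five library-drug doses (not always all listed) in √10 steps, and values are medians of duplicate plates.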

DM3189 + Luminespib = compound: C1CN(CCN1)C2=CC=C(C=C2)C3=CN4C(=C(C=N4)C5=CC=NC6=CC=CC=C56)N=C3 [DM3189] + CCNC(=O)c1noc(-c2cc(C(C)C)c(O)cc2O)c1-c1ccc(CN2CCOCC2)cc1 [Luminespib] (partner 0.01 µM)
Summary of the method: as §1

DM3189 + Linsitinib = compound: C1CN(CCN1)C2=CC=C(C=C2)C3=CN4C(=C(C=N4)C5=CC=NC6=CC=CC=C56)N=C3 [DM3189] + C[C@]1(O)C[C@@H](c2nc(-c3ccc4ccc(-c5ccccc5)nc4c3)c3c(N)nccn32)C1 [Linsitinib] (partner 1 µM)
Summary of the method: as §1

DM3189 + AZD7762 = compound: C1CN(CCN1)C2=CC=C(C=C2)C3=CN4C(=C(C=N4)C5=CC=NC6=CC=CC=C56)N=C3 [DM3189] + NC(=O)Nc1cc(-c2cccc(F)c2)sc1C(=O)N[C@H]1CCCNC1 [AZD7762] (partner 0.2 µM)
Summary of the method: as §1

DM3189 + Olaparib = compound: C1CN(CCN1)C2=CC=C(C=C2)C3=CN4C(=C(C=N4)C5=CC=NC6=CC=CC=C56)N=C3 [DM3189] + O=C(c1cc(Cc2n[nH]c(=O)c3ccccc23)ccc1F)N1CCN(C(=O)C2CC2)CC1 [Olaparib] (partner 8 µM)
Summary of the method: as §1

| Cell Line | relative viability (DM3189 + Palbociclib; first compound 0.08 µM) | relative viability (DM3189 + Palbociclib; first compound 0.253 µM) | relative viability (DM3189 + Palbociclib; first compound 0.8 µM) | relative viability (DM3189 + Palbociclib; first compound 2.53 µM) | relative viability (DM3189 + Luminespib; first compound 0.08 µM) | relative viability (DM3189 + Luminespib; first compound 0.253 µM) | relative viability (DM3189 + Luminespib; first compound 0.8 µM) | relative viability (DM3189 + Luminespib; first compound 2.53 µM) | relative viability (DM3189 + Linsitinib; first compound 0.08 µM) | relative viability (DM3189 + Linsitinib; first compound 0.253 µM) | relative viability (DM3189 + Linsitinib; first compound 0.8 µM) | relative viability (DM3189 + Linsitinib; first compound 2.53 µM) | relative viability (DM3189 + AZD7762; first compound 0.08 µM) | relative viability (DM3189 + AZD7762; first compound 0.253 µM) | relative viability (DM3189 + AZD7762; first compound 0.8 µM) | relative viability (DM3189 + AZD7762; first compound 2.53 µM) | relative viability (DM3189 + Olaparib; first compound 0.08 µM) | relative viability (DM3189 + Olaparib; first compound 0.253 µM) | relative viability (DM3189 + Olaparib; first compound 0.8 µM) | relative viability (DM3189 + Olaparib; first compound 2.53 µM) |
| --- | --- | --- | --- | --- | --- | --- | --- | --- | --- | --- | --- | --- | --- | --- | --- | --- | --- | --- | --- | --- |
| HCC-15 | 0.832 | 0.721 | 0.675 | 0.844 | 0.355 | 0.399 | 0.391 | 0.369 | 0.873 | 0.821 | 0.857 | 0.715 | 1.19 | 1.14 | 1.08 | 1.24 | 0.737 | 0.724 | 0.518 | 0.591 |
| HCC-44 | 0.898 | 0.976 | 0.798 | 0.951 | 1.06 | 0.879 | 0.856 | 0.97 | 0.711 | 0.724 | 0.56 | 0.733 | 0.984 | 1.03 | 0.92 | 0.996 | 0.996 | 0.918 | 0.944 | 0.931 |
| HCC-827 | 0.539 | 0.437 | 0.452 | 0.428 | 0.589 | 0.515 | 0.608 | 0.583 | 0.982 | 0.863 | 0.888 | 0.938 | 0.207 | 0.194 | 0.205 | 0.195 | 0.665 | 0.573 | 0.511 | 0.698 |
| HOP-62 | 0.53 | 0.453 | 0.46 | 0.402 | 0.981 | 0.905 | 0.774 | 1.01 | 1.05 | 0.901 | 0.98 | 1.03 | 0.672 | 0.646 | 0.621 | 0.596 | 0.347 | 0.547 | 0.167 | 0.404 |
| LC-2-ad | 0.561 | 0.507 | 0.487 | 0.49 | 0.827 | 0.926 | 0.891 | 0.979 | 0.858 | 0.847 | 0.819 | 0.855 | 0.927 | 0.872 | 0.872 | 0.8 | 0.713 | 0.66 | 0.652 | 0.747 |
| LCLC-97TM1 | 0.196 | 0.154 | 0.177 | 0.178 | 0.71 | 0.574 | 0.699 | 0.606 | 0.162 | 0.188 | 0.145 | 0.181 | 0.275 | 0.177 | 0.207 | 0.171 | 0.415 | 0.314 | 0.281 | 0.397 |
| LCLC-103H | 0.536 | 0.434 | 0.45 | 0.455 | 0.974 | 0.985 | 0.933 | 0.999 | 1.1 | 1.07 | 1.05 | 1.17 | 0.909 | 0.817 | 0.764 | 0.818 | 0.78 | 0.713 | 0.736 | 0.75 |
| LK-2 | 0.51 | 0.393 | 0.387 | 0.243 | 0.188 | 0.214 | 0.145 | 0.191 | 0.406 | 0.321 | 0.447 | 0.189 | 0.252 | 0.153 | 0.225 | 0.219 | 0.626 | 0.613 | 0.388 | 0.489 |
| LOU-NH91 | 0.514 | 0.53 | 0.501 | 0.562 | 0.361 | 0.329 | 0.316 | 0.377 | 0.901 | 0.956 | 0.802 | 0.923 | 0.825 | 0.73 | 0.642 | 0.683 | 0.921 | 0.896 | 0.76 | 0.92 |
| LU99A | 0.482 | 0.372 | – | 0.365 | 0.229 | 0.19 | – | 0.23 | 0.49 | 0.49 | – | 0.445 | 0.379 | 0.362 | – | 0.283 | 0.296 | 0.274 | – | 0.264 |
| LXF-289 | 0.597 | 0.606 | 0.565 | 0.562 | 0.758 | 0.583 | 0.61 | 0.805 | 0.977 | 0.939 | 0.908 | 1.06 | 1.17 | 1.2 | 1.1 | 1.14 | 1.08 | 1.06 | 1.06 | 1.11 |
| NCI-H23 | 0.468 | 0.43 | 0.496 | 0.485 | 0.205 | 0.229 | 0.216 | 0.179 | 0.649 | 0.588 | 0.445 | 0.742 | 0.231 | 0.237 | 0.128 | 0.265 | 0.253 | 0.305 | 0.233 | 0.294 |
| NCI-H322M | 0.501 | 0.489 | 0.516 | 0.43 | 0.958 | 0.818 | 0.739 | 0.666 | 0.891 | 0.863 | 0.921 | 0.977 | 0.662 | 0.644 | 0.662 | 0.519 | 0.938 | 0.793 | 0.743 | 0.768 |
| NCI-H358 | 0.278 | 0.13 | 0.126 | 0.127 | 0.463 | 0.218 | 0.251 | 0.257 | 0.766 | 0.646 | 0.71 | 0.584 | 0.5 | 0.502 | 0.517 | 0.444 | 0.7 | 0.539 | 0.56 | 0.395 |
| NCI-H441 | 0.25 | 0.222 | 0.197 | 0.169 | 0.288 | 0.363 | 0.314 | 0.264 | 0.587 | 0.511 | 0.518 | 0.548 | 1.25 | 0.862 | 1.16 | 1.35 | 0.689 | 0.485 | 0.663 | 0.583 |
